This note sets out measurements from patent US20170157112A1, “HIF INHIBITORS” (UCL BUSINESS PLC, priority 2013, published 2017).

One data set has as its system HIF activity. In words: U2OS-HRE-luc cell-based HRE-luciferase reporter assay. The following applies: for inhibition of luciferase activity in U2OS-HRE cells: 1 μM, 1% O2 for 16 hours. Here is the method:
Cells were harvested and luciferase activity was measured in cell lysates using a standard luminometer. Data was represented as relative light units (RLU) for each condition.
(§1) Tubulin was used as a loading control.
(In a reporter assay the amount or activity of a reporter protein is the signal.)

The test system of the next data set is eIF-2α phosphorylation. In words: Western blot of eIF-2α phosphorylation in U2OS-HRE-luc cells. It is filed as cell-based. The following applies: for eIF-2α phosphorylation (western blot): dose range, normoxia or hypoxia 16 hours. The protocol:
Cells were harvested and components of the protein translational machinery were assessed by western blot analysis.
as §1
For orientation: Immunoblotting shows a protein as a band on a membrane.

The next data set has as its system GLUT1. In words: GLUT1 protein by western blot in U2OS-HRE-luc cells. The class given is cell-based. The following applies: 0.1-1 μM, hypoxia 16 hours. Here is the method: (§2) Cells were harvested and assessed for VEGF and GLUT1 protein levels using a quantitative ELISA or by western blot analysis respectively. In addition, tumour cells were exposed to 0.5 or 2.5 μM HIF-Inhib1 in hypoxia, and tumour cell migration was measured using a 2-dimensional filter-based migration assay.

In data set [1] the test system is HIF activity and HIF-α expression. In words: HIF activity and HIF-α expression in several cancer cell lines. It is filed as cell-based.
Data set [2] concerns panel of tumour cell lines. In words: Growth inhibition / toxicity on tumour cell lines. It is filed as cell-based.
Data set [3] deals with PC3LN5 orthotopic xenograft. In words: PC3LN5 orthotopic mouse xenograft model: tumour growth, metastasis, body weight, PK. The class given is in vivo, mice. Here is the method: (§3) PC3LN5 (10^5 cells) were implanted intraprostatically into mice (Nu) and tumours were allowed to develop for 12 days. Mice received HIF-Inhib1 (75 mg·kg^−1) by IP injection daily for 2.5 weeks. Plasma and tumour samples were taken 24 h after the last dose and analysed by LCMS. Tumours were excised and homogenised, and assessed for PD endpoints HIF-1α and VEGF proteins. Local and distant lymph node metastases were also evaluated.

A further data set deals with ERK1/2 and AKt/PKB. In words: Western blot of cellular signaling proteins ERK1/2 and AKt/PKB. The class given is cell-based. As to conditions: 1 μM, normoxia or hypoxia. The protocol:
(§4) U2OS-HRE-luc described in A, were harvested for western blot analysis. FIG. 1B: Western blots show the effects of HIF-Inhib1 on HIF-1α protein in normoxia or hypoxia. Actin was used as a load control. FIG. 1C: Western blots show HIF-1α, phosphorylated ERK1/2 (ERK1/2-P), and AKT/PKB proteins in the absence (−) and presence of 1 μM HIF-Inhib1 in normoxia (norm) or hypoxia (hyp). Actin was used as a load control. FIG. 1D: Western blots show the effects of HIF-Inhib1 (1 μM) on HIF-2α protein levels. UT (untreated), and DMSO treated (−) controls are indicated;

Data set [4] in a line: PK by LCMS in PC3LN5 subcutaneous xenograft mice. The class given is in vivo. The following applies: for concentration at 24 h: intraperitoneal. The protocol:
HIF-Inhib1 was administered IP dose of 100 mg·kg^−1 to Nu mice with PC3LN5 xenografts. Mice were killed at 24 h and xenografts removed for PD/PK analysis. Tumour samples were homogenised with 3× (v/w) PBS and 50 μL extracted by addition of 150 μL of methanol. Tumour extracts were analysed by LCMS using reverse-phase Synergi Polar-RP (Phenomenx, 50×2.1 mm) analytical column and positive ion mode ESI+ MRM.

Data set [5] deals with VEGF. In words: PD endpoint VEGF protein in PC3LN5 orthotopic tumours. The class given is in vivo, mice. As to conditions: 75 mg/kg IP daily. Here is the method:
as §3

The next data set concerns HIF-2α. In words: Western blot of HIF-2α protein induction in hypoxia. The class given is cell-based. As to conditions: 1 μM. The protocol:
as §4

Data set [6] is described as follows: Tolerability of daily IP dosing in mice. The following applies: mouse, in vivo.
The test system of data set [7] is VEGF. In words: VEGF protein by quantitative ELISA in U2OS-HRE-luc cells. It is filed as cell-based. The protocol: as §2
Where [8] appears, read: PC3LN5 orthotopic xenograft, 75 mg/kg IP daily.

pIC50: −log10 of the molar value. Where two headings read alike, the source gives them in different places. Where only a bound is given, the exact number is not on record here.

On to `CCC1=C(C[C@@H]2NCCc3cc(OC)c(OC)cc32)C[C@H]2c3ccccc3CCN2C1` [UCL-ONY-003], for which the “inhibition of luciferase activity in U2OS-HRE cells” value (shortened to “inhibition of luciferase activity”) with HIF activity is “inactive”.
Consider `CCC1=C(CC2c3ccc(OC)cc3CCN2S(C)(=O)=O)CC2c3ccccc3CCN2C1` (racemic) [UCL-ONY-004], for which the “inhibition of luciferase activity” value in the data set on HIF activity is “inactive”.
As usually defined, the pIC50 is the IC50 on a negative log10 scale, so that one unit is a factor of ten. The term MTD denotes the highest dose tested that stayed within the study's limit of toxicity. As to `CCC1=C(CC2NCCc3cc(OC)c(OC)cc32)CC2c3ccccc3CCN2C1` (stereo not drawn) [Compound I], the “potency in blocking eIF-2α phosphorylation” value in the data set with eIF-2α phosphorylation fell in the range of 250 to 500 nM. The figures for the “eIF-2α phosphorylation (western blot)” value in the data set with eIF-2α phosphorylation and in the data set with eIF-2α phosphorylation (listed as HIF-Inhib1) were “block eIF-2α phosphorylation” and “blocked eIF-2α phosphorylation in a dose-dependent manner”, respectively. The “induction of HIF target protein GLUT1” value in the data set on GLUT1 is “blocks the induction”. Moreover, in data set [1], the “HIF activity and HIF-α expression in response to hypoxia and growth factors” value is “inhibits both HIF activity and HIF-α expression”. Besides, the “concentrations inhibiting growth of a panel of tumour cell lines” value in data set [2] was “submicromolar”. Moreover, in [3] (75 mg/kg IP daily, 24 h after last dose, LCMS), the “PK profile in tumours” value is listed as “good PK profile”. Also, the Mouse body weight result in [3] (16 days of daily dosing, 75 mg/kg IP) is given as “not significantly affected”. Also, in data set [3] (setting [8]), the “metastasis (local and distant lymph nodes)” value is given as “significantly blocked”. Also, in data set [3] (setting [8]), the tumour growth result is “significantly blocked”. Also, the “expression of key cellular signaling proteins ERK1/2 and AKt/PKB” value with ERK1/2 and AKt/PKB was “no significant effect”. Further, the bioavailability in vivo entry in [4] (100 mg/kg IP, PC3LN5 xenograft mice) is on record as “Good Bioavailability”. Moreover, the “pharmacokinetic properties in vivo” value in [4] (mouse, in vivo) was “favourable pharmacokinetic properties”. Besides, the concentration at 24 h in [4] (mouse, plasma, 100 mg/kg IP, Nu mice with PC3LN5 xenografts, read-out: Plasma concentrations) fell in the range of 70 to 300 nM; in data set [4] (mouse, tumour (PC3LN5 subcutaneous xenograft), 100 mg/kg IP, PC3LN5 subcutaneous xenografts, Nu mice, LCMS, read-out: Tumour concentrations) it was 1900 to 35000 nM. Besides, the “HIF activity (HRE-luciferase activity, RLU)” value in the data set on HIF activity (0.1-1 μM, hypoxia (1% O2) 16 hours) is given as “blocks HIF activity”. Moreover, the pIC50 in the data set on HIF activity (read-out: IC50 for inhibiting HIF activity) was about 6.30. Moreover, in the data set on VEGF [5], the “VEGF protein in PC3LN5 orthotopic tumours” value is given as “blocked”. Besides, the “HIF-2α protein induction in hypoxia” value with HIF-2α was “blocks HIF-2α protein induction in hypoxia”. The maximal tolerated dose (MTD) in [6] is at most 100 mg/kg. The “induction of HIF target protein VEGF” value in the data set on VEGF [7] (0.1-1 μM, hypoxia 16 hours, ELISA) is “blocks the induction”. Also, the “potency in blocking VEGF induction in hypoxia” value with VEGF [7] (hypoxia) lay within 250 to 500 nM.
Turning to `CCC1=C(C[C@@H]2NCCc3cc(OC)c(OC)cc32)C[C@@H]2c3ccccc3CCN2C1` [UCL-ONY-002], the “inhibition of luciferase activity” value in the data set on HIF activity is “inactive”.
As for `CC[C@H]1CN2CCc3cc(OC)c(OC)cc3[C@@H]2C[C@@H]1C[C@H]1NCCc2cc(OC)c(OC)cc21` [emetine, reference compound], in the data set on eIF-2α phosphorylation, the “eIF-2α phosphorylation (western blot)” value is recorded as “blocks eIF-2α phosphorylation”. Further, the “HIF activity (relative light units)” value in the data set with HIF activity (emetine 0.017 uM, hypoxia (1% O2) 16 hours) was “significantly blocked HIF activity”.
